Test results reported in the supplement of paper PMC6045584.
± gives the standard deviation of the averaged measurements.

Assays:
[1] = compound: CC(=O)NCC(=O)N1[C@@H]2CC[C@H]1c1ccc(Nc3ncc(C(F)(F)F)c(NC4CCC4)n3)cc12; assay: surviving fraction relative to DMSO-only wells; higher = less growth inhibition; conditions: exposure time: 5 days
Outline: (§1)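 Surviving fraction was calculated by normalising CellTiter-Glo luminescence to the median of DMSO-only wells. Tumour cell lines in log phase were seeded in 384-well plates at 250–500 cells per well, and 24 hours later were exposed continuously for five days to inhibitors at 0.5, 1, 5, 10, 50, 100, 500 and 1000 nM.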

[2] = compound: T1, CC(=O)O[C@H]1C(=O)[C@@]2(C)[C@H]([C@H](OC(=O)c3ccccc3)[C@]3(O)C[C@H](OC(=O)[C@H](O)[C@@H](NC(=O)c4ccccc4)c4ccccc4)C(C)=C1C3(C)C)[C@]1(OC(C)=O)CO[C@@H]1C[C@@H]2O [PACLITAXEL]; assay: as above; conditions: exposure time: 5 days
Outline: as §1

[3] = compound: CC(=O)c1c(C)c2cnc(Nc3ccc(N4CCNCC4)cn3)nc2n(C2CCCC2)c1=O; assay: as above; conditions: exposure time: 5 days
Outline: as §1

[4] = compound: T2, CC[C@@]1(O)C(=O)OCc2c1cc1n(c2=O)Cc2cc3ccccc3nc2-1 [CAMPTOTHECIN]; assay: as above; conditions: exposure time: 5 days
Outline: as §1

[5] = compound: T3, COCC[n+]1c2c(n(Cc3cnccn3)c1C)C(=O)c1ccccc1C2=O [YM155]; assay: as above; conditions: exposure time: 5 days
Outline: as §1

[6] = compound: T4, COc1cc2ncnc(Nc3ccc(F)c(Cl)c3)c2cc1OCCCN1CCOCC1 [GEFITINIB]; assay: as above; conditions: exposure time: 5 days
Outline: as §1

[7] = compound: T5, C[C@]1(O)C[C@@H](c2nc(-c3ccc4ccc(-c5ccccc5)nc4c3)c3c(N)nccn32)C1 [OSI-906]; assay: as above; conditions: exposure time: 5 days
Outline: as §1

[8] = compound: T6, Cc1ccc(-c2cc(C(F)(F)F)nn2-c2ccc(S(N)(=O)=O)cc2)cc1 [CELECOXIB]; assay: as above; conditions: exposure time: 5 days
Outline: as §1

[9] = compound: T7, O=C(O)C1(C(=O)O)CCC1.[NH2-].[NH2-].[Pt+2] [CARBOPLATIN]; assay: as above; conditions: exposure time: 5 days
Outline: as §1

[10] = compound: CC(=O)NCC(=O)N1[C@@H]2CC[C@H]1c1ccc(Nc3ncc(C(F)(F)F)c(NC4CCC4)n3)cc12; assay: area under dose-response curve of surviving fraction (unscaled, Aref=0) (surviving fraction x log10(nM)); higher = more resistant; conditions: exposure time: 5 days; dose range 0.5-1000 nM
Outline: (§2)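 Surviving fractions were fitted by 3-parameter logistic regression in the drc R package to give dose-response survival curves. They came from tumour cell lines treated for five days with eight inhibitor concentrations from 0.5 to 1000 nM and read by CellTiter-Glo luminescence against DMSO-only wells. The area under the curve is the unscaled activity area. It was calculated over log10 dose with Aref = 0.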

[11] = compound: T1, PACLITAXEL; assay: as above; conditions: exposure time: 5 days; dose range 0.5-1000 nM
Outline: as §2

[12] = compound: T2, CAMPTOTHECIN; assay: as above; conditions: exposure time: 5 days; dose range 0.5-1000 nM
Outline: as §2

[13] = compound: T3, YM155; assay: as above; conditions: exposure time: 5 days; dose range 0.5-1000 nM
Outline: as §2

[14] = compound: T4, GEFITINIB; assay: as above; conditions: exposure time: 5 days; dose range 0.5-1000 nM
Outline: as §2

[15] = compound: T5, OSI-906; assay: as above; conditions: exposure time: 5 days; dose range 0.5-1000 nM
Outline: as §2

[16] = compound: T6, CELECOXIB; assay: as above; conditions: exposure time: 5 days; dose range 0.5-1000 nM
Outline: as §2

[17] = compound: T7, CARBOPLATIN; assay: as above; conditions: exposure time: 5 days; dose range 0.5-1000 nM
Outline: as §2

BT549 BREAST
surviving fraction ([1]; 0.5 nM): 1.11 ± 0.058
surviving fraction ([1]; 1 nM): 1.09 ± 0.046
surviving fraction ([1]; 5 nM): 1.04 ± 0.12
surviving fraction ([1]; 10 nM): 1.05 ± 0.073
surviving fraction ([1]; 50 nM): 0.993 ± 0.1
surviving fraction ([1]; 100 nM): 0.494 ± 0.071
surviving fraction ([1]; 500 nM): 0.409 ± 0.071
surviving fraction ([1]; 1000 nM): 0.237 ± 0.014
surviving fraction ([2]; 0.5 nM): 0.963 ± 0.13
surviving fraction ([2]; 1 nM): 0.219 ± 0.04
surviving fraction ([2]; 5 nM): 0.0553 ± 0.0085
surviving fraction ([2]; 10 nM): 0.0387 ± 0.0025
surviving fraction ([2]; 50 nM): 0.049 ± 0.0079
surviving fraction ([2]; 100 nM): 0.041 ± 0.0027
surviving fraction ([2]; 500 nM): 0.038 ± 0.0053
surviving fraction ([2]; 1000 nM): 0.0463 ± 0.014
surviving fraction ([3]; 0.5 nM): 1.1 ± 0.12
surviving fraction ([3]; 1 nM): 1.124 ± 0.0096
surviving fraction ([3]; 5 nM): 1.22 ± 0.14
surviving fraction ([3]; 10 nM): 1.03 ± 0.098
surviving fraction ([3]; 50 nM): 1.13 ± 0.17
surviving fraction ([3]; 100 nM): 0.979 ± 0.16
surviving fraction ([3]; 500 nM): 1.12 ± 0.12
surviving fraction ([3]; 1000 nM): 1.05 ± 0.036
surviving fraction ([4]; 0.5 nM): 0.743 ± 0.096
surviving fraction ([4]; 1 nM): 0.672 ± 0.094
surviving fraction ([4]; 5 nM): 0.377 ± 0.018
surviving fraction ([4]; 10 nM): 0.103 ± 0.014
surviving fraction ([4]; 50 nM): 0.032 ± 0.004
surviving fraction ([4]; 100 nM): 0.0227 ± 0.00058
surviving fraction ([4]; 500 nM): 0.02
surviving fraction ([4]; 1000 nM): 0.023 ± 0.002
surviving fraction ([5]; 0.5 nM): 1.08 ± 0.11
surviving fraction ([5]; 1 nM): 1.03 ± 0.11
surviving fraction ([5]; 5 nM): 0.99 ± 0.0076
surviving fraction ([5]; 10 nM): 0.834 ± 0.11
surviving fraction ([5]; 50 nM): 0.256 ± 0.083
surviving fraction ([5]; 100 nM): 0.0713 ± 0.018
surviving fraction ([5]; 500 nM): 0.029 ± 0.008
surviving fraction ([5]; 1000 nM): 0.0307 ± 0.0023
surviving fraction ([6]; 0.5 nM): 1.1 ± 0.18
surviving fraction ([6]; 1 nM): 1.03 ± 0.073
surviving fraction ([6]; 5 nM): 1.04 ± 0.13
surviving fraction ([6]; 10 nM): 0.946 ± 0.094
surviving fraction ([6]; 50 nM): 1.17 ± 0.14
surviving fraction ([6]; 100 nM): 1.21 ± 0.046
surviving fraction ([6]; 500 nM): 1.057 ± 0.007
surviving fraction ([6]; 1000 nM): 1.11 ± 0.15
surviving fraction ([7]; 0.5 nM): 0.867 ± 0.08
surviving fraction ([7]; 1 nM): 0.792 ± 0.027
surviving fraction ([7]; 5 nM): 0.836 ± 0.048
surviving fraction ([7]; 10 nM): 0.88 ± 0.13
surviving fraction ([7]; 50 nM): 1.11 ± 0.18
surviving fraction ([7]; 100 nM): 0.984 ± 0.059
surviving fraction ([7]; 500 nM): 1.1 ± 0.096
surviving fraction ([7]; 1000 nM): 0.94 ± 0.067
surviving fraction ([8]; 0.5 nM): 1.02 ± 0.08
surviving fraction ([8]; 1 nM): 1.06 ± 0.088
surviving fraction ([8]; 5 nM): 1.07 ± 0.16
surviving fraction ([8]; 10 nM): 1.24 ± 0.062
surviving fraction ([8]; 50 nM): 1.15 ± 0.068
surviving fraction ([8]; 100 nM): 1.28 ± 0.067
surviving fraction ([8]; 500 nM): 1.18 ± 0.03
surviving fraction ([8]; 1000 nM): 1.15 ± 0.058
surviving fraction ([9]; 0.5 nM): 1.08 ± 0.038
surviving fraction ([9]; 1 nM): 1.19 ± 0.04
surviving fraction ([9]; 5 nM): 1.06 ± 0.081
surviving fraction ([9]; 10 nM): 1.05 ± 0.03
surviving fraction ([9]; 50 nM): 1.05 ± 0.097
surviving fraction ([9]; 100 nM): 1.2 ± 0.072
surviving fraction ([9]; 500 nM): 0.967 ± 0.034
surviving fraction ([9]; 1000 nM): 1.16 ± 0.032
area under dose-response curve [10]: 2.58
area under dose-response curve [11]: 0.396
area under dose-response curve [12]: 0.714
area under dose-response curve [13]: 1.74
area under dose-response curve [14]: 3.57
area under dose-response curve [15]: 3.07
area under dose-response curve [16]: 3.78
area under dose-response curve [17]: 3.61
